Results on one compound are retold here after paper PMC7252214 (The Plant journal : for cell and molecular biology, 2019).

The target of the test is T1, ApKSL2 (Andrographis paniculata, UniProt A0A3G1S3U0).
T1 sequence (A0A3G1S3U0 41-814): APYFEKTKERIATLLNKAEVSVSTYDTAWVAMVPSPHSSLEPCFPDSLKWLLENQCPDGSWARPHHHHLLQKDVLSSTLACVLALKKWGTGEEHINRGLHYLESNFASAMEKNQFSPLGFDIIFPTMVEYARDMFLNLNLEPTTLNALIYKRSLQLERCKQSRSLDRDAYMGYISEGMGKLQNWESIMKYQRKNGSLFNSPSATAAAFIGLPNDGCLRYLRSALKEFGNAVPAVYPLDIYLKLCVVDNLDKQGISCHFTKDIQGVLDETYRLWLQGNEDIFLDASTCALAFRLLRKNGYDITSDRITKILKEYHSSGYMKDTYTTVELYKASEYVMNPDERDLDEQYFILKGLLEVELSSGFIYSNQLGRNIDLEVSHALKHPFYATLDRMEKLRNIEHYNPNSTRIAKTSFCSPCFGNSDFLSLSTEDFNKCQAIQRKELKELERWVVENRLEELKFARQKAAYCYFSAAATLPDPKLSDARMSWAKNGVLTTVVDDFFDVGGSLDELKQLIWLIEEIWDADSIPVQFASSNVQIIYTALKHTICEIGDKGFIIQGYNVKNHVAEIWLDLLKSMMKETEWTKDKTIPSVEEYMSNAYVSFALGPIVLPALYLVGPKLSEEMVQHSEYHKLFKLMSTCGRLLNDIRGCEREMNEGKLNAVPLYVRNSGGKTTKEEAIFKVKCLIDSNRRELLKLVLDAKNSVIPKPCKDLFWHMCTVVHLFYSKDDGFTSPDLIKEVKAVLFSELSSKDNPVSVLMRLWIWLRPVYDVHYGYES
As to the kind of experiment: co-expression in E. coli, GC-MS of products. The following applies: E. coli engineered to produce ent-CPP; product ent-kaurene. The format is cell-based.

Turning to `C=C1CC[C@@H]2C(C)(C)CCC[C@@]2(C)[C@@H]1CC/C(C)=C/COP(=O)(O)OP(=O)(O)O` [ent-CPP], the “co-expression in E. coli, GC-MS of products” value is “ApKSL2 acted on both ent-CPP, producing ent-kaurene”.
